Measurements published in patent publication US20220304978A1, “INHIBITING MESANGIAL CELL ACTIVATION” (Chinook Therapeutics, Inc., priority 2019, published 2022).

Tested on: kidney tissue of g-ddY mice
Assay: RNA-seq differential gene expression in kidney tissue of g-ddY mice
Format: in vivo, mouse
Description: RNA isolation and sequencing libraries were generated using standard protocols. Sequencing was performed using an Illumina NextSeq500 using manufacturer's instructions with a read length of 75 bp and a read depth of 30 million. Raw data was assembled to FASTQ files. Following QC analysis, high quality sequencing reads (e.g., reads with a Phred quality score >36) were aligned to the mouse reference genome (GRCm38-mm10) using the default parameters of the align algorithm and transcript count tables of each library was generated using the default parameters of the featureCounts algorithm of the RSubread package (Liao Y, Smyth GK, Shi W, 2019). High quality sequencing reads mapped to 27,129 genes. Following additional QC of low count filtering (i.e. transcripts <10 counts across all samples), 16,207 genes were identified and used for further analysis. The remaining sequencing read counts of the included 16,207 genes were normalized to library size, log-transformed, and were quantified as counts per million (CPM). Select RNA-seq counts were validated using qPCR. Sequencing read counts (CPM) were used for identification of differential gene expression between specified populations using the quasi-likelihood methodology of the edgeR package. […] MA plots were generated using edgeR. Heatmaps and other plots were generated using the gplots and ggplot2 package.

[1] = 20 mg/kg/day vs control, cell proliferation signaling
[2] = 20 mg/kg/day vs control, inflammatory response signaling
[3] = 20 mg/kg/day vs control, mesangial cell signature
[4] = 30 mg/kg/day vs control, IL6 signaling
[5] = 30 mg/kg/day vs control, NF-kB signaling
[6] = 30 mg/kg/day vs control, PDGF signaling
[7] = 30 mg/kg/day vs control, cell proliferation signaling
[8] = 30 mg/kg/day vs control, inflammatory response signaling
[9] = 30 mg/kg/day vs control, mesangial cell signature

CCCCN(CCCC)C(=O)CN1C[C@H](c2ccc3c(c2)OCO3)[C@@H](C(=O)O)[C@@H]1c1ccc(OC)cc1 [atrasentan, (2R,3R,4S)-4-(1,3-benzodioxol-5-yl)-1-[2-(dibutylamino)-2-oxoethyl]-2-(4-methoxyphenyl)pyrrolidine-3-carboxylic acid]
Rapgef5 logFC [1]: −0.3804
Rhot2 logFC [1]: 0.4576
Slc7a1 logFC [1]: −0.7304
Slc12a2 logFC [1]: −0.3373
Slc38a1 logFC [1]: −0.6989
Smc3 logFC [1]: −0.1696
Sorbs2 logFC [1]: −0.4717
Tiam1 logFC [1]: −0.9494
Tuba4a logFC [1]: 0.2861
Vcl logFC [1]: −0.3317
Ythdc1 logFC [1]: −0.0815
Btg2 logFC [2]: −0.6974
Cdkn1a logFC [2]: 0.2546
Chst2 logFC [2]: −0.368
Csf1 logFC [2]: −1.089
Edn1 logFC [2]: −1.328
Eif2ak2 logFC [2]: −0.3002
F3 logFC [2]: −0.5235
Gabbr1 logFC [2]: −0.1316
Hpn logFC [2]: 0.4187
Il1r1 logFC [2]: −0.8263
Ly6e logFC [2]: 0.2436
Nfkb1 logFC [2]: −0.616
Nfkbia logFC [2]: −0.7041
Rnf144b logFC [2]: −0.9765
Ros1 logFC [2]: −1.992
Serpine1 logFC [2]: −1.501
Slc4a4 logFC [2]: 0.5245
Slc7a1 logFC [2]: −0.7304
Slc7a2 logFC [2]: −1.336
Slc11a2 logFC [2]: 0.35
Ahnak logFC [3]: −0.7128
Akap12 logFC [3]: −0.5404
Akt3 logFC [3]: −0.4673
Aldob logFC [3]: 0.4923
Ankrd12 logFC [3]: −0.2463
C7 logFC [3]: −1.277
Cald1 logFC [3]: −0.5361
Cblb logFC [3]: −0.2068
Ebf1 logFC [3]: −0.3512
Epb41l2 logFC [3]: −0.6149
Ets1 logFC [3]: −0.3065
Fchsd2 logFC [3]: −0.1882
Frmd4a logFC [3]: −0.3955
Gata3 logFC [3]: −0.4924
Gpx3 logFC [3]: 0.71
Igfbp7 logFC [3]: 0.1088
Lama2 logFC [3]: −0.4437
Maml2 logFC [3]: −0.2311
Mef2c logFC [3]: −0.6302
Meis1 logFC [3]: −0.3593
Myh9 logFC [3]: −0.4543
Myo1e logFC [3]: −0.292
Nbea logFC [3]: −0.1933
Nfkbia logFC [3]: −0.7041
Nr4a1 logFC [3]: −1.621
Piezo2 logFC [3]: −0.6148
Postn logFC [3]: −2.293
Pparg logFC [3]: −0.5616
Ppp1r12a logFC [3]: −0.2135
Prkg1 logFC [3]: −0.328
Psd3 logFC [3]: −0.5227
Ptprm logFC [3]: −0.2678
Rapgef5 logFC [3]: −0.3804
Raph1 logFC [3]: −0.3852
Rbms3 logFC [3]: −0.7192
Robo1 logFC [3]: −0.7261
Stard13 logFC [3]: −0.6367
Tacc1 logFC [3]: −0.3693
Tcf4 logFC [3]: −0.224
Tjp1 logFC [3]: −0.3054
Tns3 logFC [3]: −0.3043
Unc5c logFC [3]: 0.3685
Utrn logFC [3]: −0.5143
Zeb2 logFC [3]: −0.6492
Cntfr logFC [4]: −0.9365
Csf1 logFC [4]: −1.26
Il1r1 logFC [4]: −0.6078
Il2ra logFC [4]: −1.58
Map3k8 logFC [4]: −0.8664
Ackr3 logFC [5]: 0.5485
Btg1 logFC [5]: −0.4825
Btg2 logFC [5]: −0.6689
Ccn1 logFC [5]: −0.9198
Ccnd1 logFC [5]: 0.6947
Cdkn1a logFC [5]: 0.6369
Csf1 logFC [5]: −1.26
Dnajb4 logFC [5]: −0.7534
Edn1 logFC [5]: −1.688
Efna1 logFC [5]: 0.7278
Ehd1 logFC [5]: 0.4138
F3 logFC [5]: −0.564
Fosl2 logFC [5]: −1.205
Gem logFC [5]: −1.912
Id2 logFC [5]: 0.5394
Ifit2 logFC [5]: −0.6119
Jag1 logFC [5]: −0.6784
Klf2 logFC [5]: −0.7182
Klf4 logFC [5]: −0.9474
Map3k8 logFC [5]: −0.8664
Nfat5 logFC [5]: −0.5845
Nfkb1 logFC [5]: −0.6498
Nfkbia logFC [5]: −0.7307
Nr4a1 logFC [5]: −1.803
Nr4a2 logFC [5]: −1.728
Nr4a3 logFC [5]: −1.939
Per1 logFC [5]: −0.9307
Pfkfb3 logFC [5]: −1.485
Pnrcl logFC [5]: 0.4856
Rel logFC [5]: −1.298
Rhob logFC [5]: −0.7265
Serpine1 logFC [5]: −1.387
Snn logFC [5]: 0.4725
Spsb1 logFC [5]: −1.097
Tnfaip8 logFC [5]: 0.517
Traf1 logFC [5]: −1.371
Trib1 logFC [5]: −1.074
Zbtb10 logFC [5]: −0.2912
Hras logFC [6]: 0.4354
Map3k1 logFC [6]: −0.7636
Nfkb1 logFC [6]: −0.6498
Nfkbia logFC [6]: −0.7307
Pdgfb logFC [6]: −0.5424
Pdgfra logFC [6]: −0.7094
Pik3cg logFC [6]: −0.7287
Pik3r1 logFC [6]: −0.6223
Pla2g4a logFC [6]: −0.9024
Tiam1 logFC [6]: −1.227
Arid4a logFC [7]: −0.5719
Atrx logFC [7]: −0.4031
Bcar1 logFC [7]: 0.4182
Ccdc88a logFC [7]: −0.7206
Ccnd1 logFC [7]: 0.6947
Cep192 logFC [7]: −0.43
Cntrl logFC [7]: −0.5569
Dmd logFC [7]: −0.405
Epb41l2 logFC [7]: −0.7021
Fgd6 logFC [7]: −0.6983
Flna logFC [7]: −0.6183
Itsn1 logFC [7]: −0.5129
Kmt5a logFC [7]: 0.4169
Meis1 logFC [7]: −0.4934
Myh9 logFC [7]: −0.6171
Myh10 logFC [7]: −0.5242
Myo1e logFC [7]: −0.4177
Nin logFC [7]: −0.7352
Ophn1 logFC [7]: −0.7129
Rapgef5 logFC [7]: −0.4225
Rhot2 logFC [7]: 0.5432
Slc7a1 logFC [7]: −0.7952
Slc12a2 logFC [7]: −0.3306
Slc38a1 logFC [7]: −0.8108
Smc3 logFC [7]: −0.4558
Sorbs2 logFC [7]: −0.3601
Tiam1 logFC [7]: −1.227
Tuba4a logFC [7]: 0.4958
Vcl logFC [7]: −0.3604
Ythdc1 logFC [7]: −0.3579
Btg2 logFC [8]: −0.6689
Cdkn1a logFC [8]: 0.6369
Chst2 logFC [8]: −0.9214
Csf1 logFC [8]: −1.26
Edn1 logFC [8]: −1.688
Eif2ak2 logFC [8]: −0.5033
F3 logFC [8]: −0.564
Gabbr1 logFC [8]: −0.5762
Hpn logFC [8]: 0.6197
Il1r1 logFC [8]: −0.6078
Ly6e logFC [8]: 0.6857
Nfkb1 logFC [8]: −0.6498
Nfkbia logFC [8]: −0.7307
Rnf144b logFC [8]: −0.8848
Ros1 logFC [8]: −1.985
Serpine1 logFC [8]: −1.387
Slc4a4 logFC [8]: 0.6146
Slc7a1 logFC [8]: −0.7952
Slc7a2 logFC [8]: −0.9808
Slc11a2 logFC [8]: 0.4205
Ahnak logFC [9]: −1.013
Akap12 logFC [9]: −0.8211
Akt3 logFC [9]: −0.4843
Aldob logFC [9]: 0.748
Ankrd12 logFC [9]: −0.4726
C7 logFC [9]: −1.079
Cald1 logFC [9]: −0.506
Cblb logFC [9]: −0.4288
Ebf1 logFC [9]: −0.4506
Epb41l2 logFC [9]: −0.7021
Ets1 logFC [9]: −0.3379
Fchsd2 logFC [9]: −0.3772
Frmd4a logFC [9]: −0.5742
Gata3 logFC [9]: −0.5216
Gpx3 logFC [9]: 1.122
Igfbp7 logFC [9]: 0.4259
Lama2 logFC [9]: −0.4895
Maml2 logFC [9]: −0.4441
Mef2c logFC [9]: −0.6869
Meis1 logFC [9]: −0.4934
Myh9 logFC [9]: −0.6171
Myo1e logFC [9]: −0.4177
Nbea logFC [9]: −0.432
Nfkbia logFC [9]: −0.7307
Nr4a1 logFC [9]: −1.803
Piezo2 logFC [9]: −0.8237
Postn logFC [9]: −1.247
Pparg logFC [9]: −0.6781
Ppp1r12a logFC [9]: −0.3826
Prkg1 logFC [9]: −0.6356
Psd3 logFC [9]: −0.5843
Ptprm logFC [9]: −0.5453
Rapgef5 logFC [9]: −0.4225
Raph1 logFC [9]: −0.5358
Rbms3 logFC [9]: −0.8895
Robo1 logFC [9]: −0.6009
Stard13 logFC [9]: −0.8466
Tacc1 logFC [9]: −0.4924
Tcf4 logFC [9]: −0.3055
Tjp1 logFC [9]: −0.3989
Tns3 logFC [9]: −0.4522
Unc5c logFC [9]: 0.9517
Utrn logFC [9]: −0.7697
Zeb2 logFC [9]: −0.6778
